According to patent publication US20130273176A1, “METHODS AND COMPOSITIONS USEFUL FOR PROMOTING SLEEP IN ANIMALS” (Nestec SA, priority 2010, published 2013):

Key:
senior dogs [1] = test: Actiwatch activity recording, Example 2 (melatonin only, cross-over, AM or PM); type: in vivo, dog; settings: for Total Daytime Activity Counts: melatonin only, mean +/- std error
Description: Using a cross-over design, all animals were administered a control placebo and a treatment supplement containing melatonin. The animals were senior animals, dogs greater than 10 years of age. There were 4 males and 4 females in each group. For the intervention phases (phases 2 and 4), all animals were administered melatonin in the AM or PM. During the control and cross-over phases (phase 1 and 3, respectively) the animals were administered a placebo comprising methylcellulose contained in a gel capsule in the AM or PM, as appropriate. Each phase lasted 35 days. Starting on day 29 of each phase, the animals locomotor behavioral activity was monitored for 4 consecutive days. The placebo consisted of the carrier (methylcellulose) contained in a gel capsule and was provided during the control phases (Phases 1 and 3) either with the AM or PM feeding, as appropriate to complement the supplement time (luring the following intervention phase. For example, placebo in AM during phase 1, then supplement in AM during phase 2. For phase 2, the first supplement treatment phase, the animals were given supplements of melatonin. Further, for half of the animals, the supplements were in the morning with the AM feeding and half were given in the evening with the PM feeding. Thus, of the 4 males, 2 were administered the melatonin in the morning and two in the evening. During phase 3, the second control phase, delivery of the methylcellulose in a gel capsule was provided either with the AM or PM feeding, as appropriate to cross-over the treatment from phase 1-2. For phase 4, the second supplement treatment phase, the procedure was exactly the same as phase 2, except that for a given animal the supplementation time was switched from phase 2. Thus, if male was administered melatonin in the morning with the AM feeding in phase 2, the male was administered melatonin in the evening with the PM feeding in phase 4. Data analysis of periods indicated no period effect. Therefore, all control data were compiled into a single dataset, as well as all treatment data for each supplement time (AM or PM). Statistical analysis was based on AM control vs. AM treatment, and PM control vs. PM Treatment. Twenty-four hour activity rhythms were assessed for 5 consecutive days and 5 nights for Example 1 or 3 consecutive days and 4 nights for Example 2 using the Actiwatch method (Mini-Mitter® Actiwatch-16® activity monitoring system, Respironics Co. Inc., Bend, Oreg.). The Actiwatch® was placed inside a specially designed animal case and attached to a collar around the dog's neck. The dogs were allowed to follow their usual patterns of activity, test, exercise, and feeding. Daytime activity was recorded to represent the 12 hour light phase from 7 am to 7 pm. […]

senior dogs [2] = test: Actiware sleep analysis, Example 2 (melatonin only, cross-over, AM or PM); type: in vivo, dog; settings: for Nap Duration / Total Daytime Naps / Total Daytime Sleep Minutes / Total Night-Time Awakenings / Total Night-Time Wake Minutes: melatonin only, mean +/- std error
Description: Using a cross-over design, all animals were administered a control placebo and a treatment supplement containing melatonin. The animals were senior animals, dogs greater than 10 years of age. There were 4 males and 4 females in each group. For the intervention phases (phases 2 and 4), all animals were administered melatonin in the AM or PM. During the control and cross-over phases (phase 1 and 3, respectively) the animals were administered a placebo comprising methylcellulose contained in a gel capsule in the AM or PM, as appropriate.
Each phase lasted 35 days. Starting on day 29 of each phase, the animals locomotor behavioral activity was monitored for 4 consecutive days.
The placebo consisted of the carrier (methylcellulose) contained in a gel capsule and was provided during the control phases (Phases 1 and 3) either with the AM or PM feeding, as appropriate to complement the supplement time (luring the following intervention phase. For example, placebo in AM during phase 1, then supplement in AM during phase 2.
For phase 2, the first supplement treatment phase, the animals were given supplements of melatonin. Further, for half of the animals, the supplements were in the morning with the AM feeding and half were given in the evening with the PM feeding. Thus, of the 4 males, 2 were administered the melatonin in the morning and two in the evening.
During phase 3, the second control phase, delivery of the methylcellulose in a gel capsule was provided either with the AM or PM feeding, as appropriate to cross-over the treatment from phase 1-2.
For phase 4, the second supplement treatment phase, the procedure was exactly the same as phase 2, except that for a given animal the supplementation time was switched from phase 2. Thus, if male was administered melatonin in the morning with the AM feeding in phase 2, the male was administered melatonin in the evening with the PM feeding in phase 4.
Data analysis of periods indicated no period effect. Therefore, all control data were compiled into a single dataset, as well as all treatment data for each supplement time (AM or PM). Statistical analysis was based on AM control vs. AM treatment, and PM control vs. PM Treatment.
Twenty-four hour activity rhythms were assessed for 5 consecutive days and 5 nights for Example 1 or 3 consecutive days and 4 nights for Example 2 using the Actiwatch method (Mini-Mitter® Actiwatch-16® activity monitoring system, Respironics Co. Inc., Bend, Oreg.). The Actiwatch® was placed inside a specially designed animal case and attached to a collar around the dog's neck. The dogs were allowed to follow their usual patterns of activity, test, exercise, and feeding.
The Actiware® software was used to generate total daily, light phase (12-h daytime: 7 am-7 pm), and dark phase (12-h night-time: 7 PM-7 AM) total sleep or wake minutes. Light phase naps represent sleep bouts occurring during the 12-h light phase interval. Dark phase wake bouts relied awake activity during the night-time sleep interval and not the 12-h dark phase interval. Total number of bouts and bout duration were determined for both light phase naps and dark phase awakenings.
The total number of sleep minutes recorded during the daytime phase of Example 2 was used to calculate the number of nap bouts and average nap duration during this same period.

## COc1ccc2[nH]cc(CCNC(C)=O)c2c1 [Melatonin Only, melatonin]
Senior dogs [1]; AM Supplement
  Total Daytime Activity Counts: 115,705 +/− 23,249
Senior dogs [1]; PM Supplement, 1 mg/kg BW, 35 days
  Total Daytime Activity Counts: 114,816 +/− 34,282
Senior dogs [1]; PM, melatonin 1 mg/kg BW, 35 days, not statistically significant
  reduction in total daytime activity counts compared to dogs on the control food: 16%
Senior dogs [1]; melatonin supplemented in the AM
  daytime activity effect versus placebo group: not significantly different from the placebo group
Senior dogs [2]; AM Supplement
  Nap Duration: 4.2 +/− 0.7
  Total Daytime Naps: 58.3 +/− 3.5
  Total Daytime Sleep Minutes: 240 ± 32 min
  Total Night-Time Awakenings: 69.5 +/− 6.9
  Total Night-Time Wake Minutes: 198 ± 35 min
Senior dogs [2]; PM Supplement
  Nap Duration: 6.4 +/− 1.2
  Total Daytime Naps: 45.5 +/− 4.7
  Total Daytime Sleep Minutes: 264 ± 28 min
  Total Night-Time Awakenings: 52.6 +/− 5.7
  Total Night-Time Wake Minutes: 209 ± 37 min
Senior dogs [2]; PM, melatonin 1 mg/kg BW, 35 days, not statistically significant (p=0.25)
  increase in total daytime sleep minutes compared to dogs on the control food: 21%
Senior dogs [2]; melatonin alone with the PM meal
  decrease in total number of awakenings during the sleep phase compared to the control group: 22%
Senior dogs [2]; melatonin with the AM meal
  decrease in average nap length compared to control group: 31%
  increase in the number of awakenings compared to control group: 16.6%
  increase in the number of naps compared to control group: 10%
Senior dogs [2]; melatonin with the AM meal, not different from control data
  increase in night-time wake minutes compared to control group: 41%
Senior dogs [2]; melatonin with the PM meal
  total number of naps during the 12 hour daytime phase compared to the control group: did not change at all
Senior dogs [2]; melatonin with the PM meal, 12 hour daytime phase
  increase in average nap duration compared to the control group: 18.5%
Senior dogs [2]; melatonin with the PM meal, not statistically significant
  decrease in total night-time wake minutes compared to the control group: 18.6%
